pKd: −log10 of the molar value.
Key:
Test in all cases: KINOMEscan competition binding
[1] = molecular target: ABL1 (human) (UniProt P00519)
[2] = molecular target: ABL1 (human), P00519 [E255K]
[3] = molecular target: ABL1 (human), P00519 [H396P]
[4] = molecular target: ABL1 (human), P00519 [M351T]
[5] = molecular target: ABL1 (human), P00519 [Y253F]
[6] = molecular target: ABL2 (human) (UniProt P42684)
[7] = molecular target: BMX (human) (UniProt P51813)
[8] = molecular target: CAMK1 (human) (UniProt Q14012)
Sequence of CAMK1 (human) (Q14012 whole entry, looked up): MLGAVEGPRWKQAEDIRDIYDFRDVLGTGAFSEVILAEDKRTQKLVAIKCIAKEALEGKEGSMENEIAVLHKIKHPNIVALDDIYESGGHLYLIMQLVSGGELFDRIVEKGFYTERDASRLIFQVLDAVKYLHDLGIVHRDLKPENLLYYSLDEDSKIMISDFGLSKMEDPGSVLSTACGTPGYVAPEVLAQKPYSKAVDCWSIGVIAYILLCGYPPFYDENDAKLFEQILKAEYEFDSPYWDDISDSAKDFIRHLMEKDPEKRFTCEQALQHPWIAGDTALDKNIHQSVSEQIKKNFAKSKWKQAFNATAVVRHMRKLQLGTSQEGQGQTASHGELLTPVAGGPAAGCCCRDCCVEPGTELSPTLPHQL

[9] = molecular target: CAMK2A (human) (UniProt Q9UQM7)
[10] = molecular target: CAMK2D (human) (UniProt Q13557)
[11] = molecular target: CSK (human) (UniProt P41240)
[12] = molecular target: EPHA5 (human) (UniProt P54756)
Sequence of EPHA5 (human) (P54756 whole entry, looked up): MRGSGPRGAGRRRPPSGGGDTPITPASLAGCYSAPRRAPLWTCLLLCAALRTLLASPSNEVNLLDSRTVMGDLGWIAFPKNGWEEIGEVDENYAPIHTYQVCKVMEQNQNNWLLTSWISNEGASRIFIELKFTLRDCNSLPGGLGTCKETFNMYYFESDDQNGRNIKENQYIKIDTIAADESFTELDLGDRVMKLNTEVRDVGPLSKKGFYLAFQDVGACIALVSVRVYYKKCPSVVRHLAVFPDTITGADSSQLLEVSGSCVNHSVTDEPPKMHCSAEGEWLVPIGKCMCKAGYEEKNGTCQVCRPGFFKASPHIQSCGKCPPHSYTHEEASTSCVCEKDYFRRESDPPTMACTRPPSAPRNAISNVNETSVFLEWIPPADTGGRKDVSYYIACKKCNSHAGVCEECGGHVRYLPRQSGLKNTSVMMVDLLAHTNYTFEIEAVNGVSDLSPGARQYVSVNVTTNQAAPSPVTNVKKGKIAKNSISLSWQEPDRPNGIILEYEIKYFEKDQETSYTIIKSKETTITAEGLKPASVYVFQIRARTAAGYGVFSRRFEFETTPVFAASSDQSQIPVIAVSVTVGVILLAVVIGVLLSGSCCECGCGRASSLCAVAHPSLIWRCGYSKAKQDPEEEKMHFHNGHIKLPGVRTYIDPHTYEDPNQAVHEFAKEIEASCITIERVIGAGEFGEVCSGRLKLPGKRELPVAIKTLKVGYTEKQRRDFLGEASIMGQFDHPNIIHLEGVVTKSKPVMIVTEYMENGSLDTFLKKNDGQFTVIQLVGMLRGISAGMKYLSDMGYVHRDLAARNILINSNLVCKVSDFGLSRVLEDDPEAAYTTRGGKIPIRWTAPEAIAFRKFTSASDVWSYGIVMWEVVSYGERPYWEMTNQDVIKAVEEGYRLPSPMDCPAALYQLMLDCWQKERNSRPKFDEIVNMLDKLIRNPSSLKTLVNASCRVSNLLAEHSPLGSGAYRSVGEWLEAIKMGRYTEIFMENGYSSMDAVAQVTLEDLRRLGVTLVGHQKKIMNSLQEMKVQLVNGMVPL

[13] = molecular target: FER (human) (UniProt P16591)
Sequence of FER (human) (P16591 whole entry, looked up): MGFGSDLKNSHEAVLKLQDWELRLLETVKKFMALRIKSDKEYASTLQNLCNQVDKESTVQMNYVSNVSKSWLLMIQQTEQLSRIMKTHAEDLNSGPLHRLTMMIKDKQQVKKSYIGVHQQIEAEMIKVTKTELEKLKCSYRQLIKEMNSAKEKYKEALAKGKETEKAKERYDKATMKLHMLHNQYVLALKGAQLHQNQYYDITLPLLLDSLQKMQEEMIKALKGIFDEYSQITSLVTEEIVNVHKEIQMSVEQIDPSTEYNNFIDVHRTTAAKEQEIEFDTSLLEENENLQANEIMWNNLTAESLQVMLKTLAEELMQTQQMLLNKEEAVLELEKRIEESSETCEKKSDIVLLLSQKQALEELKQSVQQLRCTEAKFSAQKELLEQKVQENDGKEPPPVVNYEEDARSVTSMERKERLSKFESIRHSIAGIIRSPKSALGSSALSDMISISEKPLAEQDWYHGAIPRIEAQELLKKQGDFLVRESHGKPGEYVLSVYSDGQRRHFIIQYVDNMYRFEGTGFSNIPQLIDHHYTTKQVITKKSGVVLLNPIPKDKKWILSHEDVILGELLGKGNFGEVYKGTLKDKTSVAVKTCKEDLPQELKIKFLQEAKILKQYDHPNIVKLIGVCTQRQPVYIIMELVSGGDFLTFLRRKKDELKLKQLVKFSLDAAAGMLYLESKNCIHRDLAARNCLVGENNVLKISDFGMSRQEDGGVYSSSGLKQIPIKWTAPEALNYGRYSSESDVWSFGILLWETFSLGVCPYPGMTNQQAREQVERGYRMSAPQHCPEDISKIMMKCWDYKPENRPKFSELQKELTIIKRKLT

[14] = molecular target: FGFR1 (human) (UniProt P11362)
[15] = molecular target: FGFR2 (human) (UniProt P21802)
[16] = molecular target: FGR (human) (UniProt P09769)
[17] = molecular target: FRK (human) (UniProt P42685)
[18] = molecular target: FYN (human) (UniProt P06241)
[19] = molecular target: JAK1 JH1 catalytic (human) (UniProt P23458)
Sequence of JAK1 JH1 catalytic (human) (P23458 whole entry, looked up): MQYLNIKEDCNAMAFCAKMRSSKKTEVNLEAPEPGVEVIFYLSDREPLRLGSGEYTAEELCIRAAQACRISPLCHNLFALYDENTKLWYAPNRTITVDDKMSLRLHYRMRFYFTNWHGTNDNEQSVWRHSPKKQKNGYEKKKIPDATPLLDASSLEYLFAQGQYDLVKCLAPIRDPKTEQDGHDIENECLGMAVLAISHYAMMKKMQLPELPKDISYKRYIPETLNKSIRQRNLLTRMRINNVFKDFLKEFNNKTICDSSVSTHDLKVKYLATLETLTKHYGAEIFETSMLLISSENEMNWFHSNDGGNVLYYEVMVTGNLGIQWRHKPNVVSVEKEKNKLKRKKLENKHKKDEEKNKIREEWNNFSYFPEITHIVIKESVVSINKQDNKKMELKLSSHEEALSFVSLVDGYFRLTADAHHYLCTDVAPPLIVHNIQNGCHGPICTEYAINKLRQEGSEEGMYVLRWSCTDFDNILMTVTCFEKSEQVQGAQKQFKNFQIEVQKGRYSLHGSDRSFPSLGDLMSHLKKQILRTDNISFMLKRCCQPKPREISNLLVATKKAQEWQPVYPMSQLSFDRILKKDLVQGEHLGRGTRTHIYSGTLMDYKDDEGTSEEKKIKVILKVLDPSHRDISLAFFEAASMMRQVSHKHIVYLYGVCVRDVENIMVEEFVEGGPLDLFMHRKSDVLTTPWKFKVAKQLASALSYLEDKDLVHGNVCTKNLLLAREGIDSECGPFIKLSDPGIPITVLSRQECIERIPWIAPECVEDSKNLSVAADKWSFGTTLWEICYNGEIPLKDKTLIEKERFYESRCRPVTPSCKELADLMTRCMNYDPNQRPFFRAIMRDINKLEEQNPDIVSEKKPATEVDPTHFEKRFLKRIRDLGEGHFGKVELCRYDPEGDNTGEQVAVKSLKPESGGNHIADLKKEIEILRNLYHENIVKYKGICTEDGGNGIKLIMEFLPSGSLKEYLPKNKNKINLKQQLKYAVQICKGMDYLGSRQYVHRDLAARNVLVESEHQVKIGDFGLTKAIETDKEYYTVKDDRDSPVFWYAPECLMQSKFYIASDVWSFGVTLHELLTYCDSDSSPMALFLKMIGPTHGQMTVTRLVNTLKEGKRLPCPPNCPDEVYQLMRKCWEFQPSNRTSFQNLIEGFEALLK

[20] = molecular target: LIMK1 (human) (UniProt P53667)
[21] = molecular target: LYN (human) (UniProt P07948)
Sequence of LYN (human) (P07948 whole entry, looked up): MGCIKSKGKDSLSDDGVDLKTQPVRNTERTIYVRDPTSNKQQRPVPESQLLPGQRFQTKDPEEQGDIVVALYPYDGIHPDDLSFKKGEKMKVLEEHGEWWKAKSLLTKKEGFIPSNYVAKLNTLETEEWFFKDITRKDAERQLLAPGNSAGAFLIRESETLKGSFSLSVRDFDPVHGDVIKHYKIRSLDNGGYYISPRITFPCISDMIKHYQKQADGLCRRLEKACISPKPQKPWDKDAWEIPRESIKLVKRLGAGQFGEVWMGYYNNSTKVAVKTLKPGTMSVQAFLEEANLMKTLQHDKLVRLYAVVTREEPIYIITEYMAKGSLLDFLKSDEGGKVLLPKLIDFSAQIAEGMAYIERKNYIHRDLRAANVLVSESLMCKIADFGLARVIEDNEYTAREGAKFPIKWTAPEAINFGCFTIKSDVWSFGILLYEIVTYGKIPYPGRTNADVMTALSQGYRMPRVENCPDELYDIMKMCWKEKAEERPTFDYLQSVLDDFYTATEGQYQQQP

[22] = molecular target: MAPK11 (human) (UniProt Q15759)
[23] = molecular target: MYLK2 (human) (UniProt Q9H1R3)
[24] = molecular target: NEK6 (human) (UniProt Q9HC98)
Sequence of NEK6 (human) (Q9HC98 whole entry, looked up): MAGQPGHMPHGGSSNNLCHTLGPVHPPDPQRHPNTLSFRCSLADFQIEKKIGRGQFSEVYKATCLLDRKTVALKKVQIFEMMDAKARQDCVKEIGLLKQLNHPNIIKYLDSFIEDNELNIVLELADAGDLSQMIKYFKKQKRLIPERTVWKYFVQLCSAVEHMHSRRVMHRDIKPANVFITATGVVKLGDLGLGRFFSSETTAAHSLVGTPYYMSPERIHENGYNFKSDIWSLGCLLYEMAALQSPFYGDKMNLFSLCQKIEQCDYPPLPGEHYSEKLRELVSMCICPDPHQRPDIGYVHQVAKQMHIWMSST

[25] = molecular target: NTRK1 (human) (UniProt P04629)
[26] = molecular target: PAK4 (human) (UniProt O96013)
Sequence of PAK4 (human) (O96013 whole entry, looked up): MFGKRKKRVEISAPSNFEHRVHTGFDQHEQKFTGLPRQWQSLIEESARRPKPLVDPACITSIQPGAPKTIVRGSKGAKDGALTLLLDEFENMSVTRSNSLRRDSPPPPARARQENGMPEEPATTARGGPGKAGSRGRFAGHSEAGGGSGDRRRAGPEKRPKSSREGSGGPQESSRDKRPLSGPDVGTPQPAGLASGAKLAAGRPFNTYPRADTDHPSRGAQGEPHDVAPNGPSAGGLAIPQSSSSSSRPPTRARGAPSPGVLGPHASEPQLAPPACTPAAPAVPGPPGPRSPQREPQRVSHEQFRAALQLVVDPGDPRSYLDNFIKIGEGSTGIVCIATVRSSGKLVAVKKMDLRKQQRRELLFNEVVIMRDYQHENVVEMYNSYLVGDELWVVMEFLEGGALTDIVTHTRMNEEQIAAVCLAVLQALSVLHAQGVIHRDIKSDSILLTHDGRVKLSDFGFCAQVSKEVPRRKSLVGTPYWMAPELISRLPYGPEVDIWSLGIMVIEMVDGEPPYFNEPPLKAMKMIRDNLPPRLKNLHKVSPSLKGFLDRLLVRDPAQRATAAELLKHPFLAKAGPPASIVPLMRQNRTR

[27] = molecular target: PDGFRB (human) (UniProt P09619)
[28] = molecular target: PRKACA (human) (UniProt P17612)
[29] = molecular target: PTK6 (human) (UniProt Q13882)
[30] = molecular target: STK17B (human) (UniProt O94768)
[31] = molecular target: STK36 (human) (UniProt Q9NRP7)
[32] = molecular target: TEK (human) (UniProt Q02763)
[33] = molecular target: YES1 (human) (UniProt P07947)
[34] = molecular target: BMP2K (human) (UniProt Q9NSY1)
[35] = molecular target: CDK5 (human) (UniProt Q00535)
[36] = molecular target: EPHA3 (human) (UniProt P29320)
[37] = molecular target: PIM2 (human) (UniProt Q9P1W9)
[38] = molecular target: PLK4 (human) (UniProt O00444)
[39] = molecular target: SLK (human) (UniProt Q9H2G2)
[40] = molecular target: STK3 (mouse); conditions: accession and sequence are those of the human protein
[41] = molecular target: STK38L (human) (UniProt Q9Y2H1)
[42] = molecular target: SYK (human) (UniProt P43405)

O=C1c2ccccc2-c2n[nH]c3cccc1c23
pKd [1]: < 5.00 | pKd [2]: < 5.00 | pKd [3]: < 5.00 | pKd [4]: < 5.00 | pKd [5]: < 5.00 | pKd [6]: < 5.00 | pKd [7]: < 5.00 | pKd [8]: < 5.00 | pKd [9]: < 5.00 | pKd [10]: < 5.00 | pKd [11]: < 5.00 | pKd [12]: < 5.00 | pKd [13]: < 5.00 | pKd [14]: < 5.00 | pKd [15]: 5.72 | pKd [16]: < 5.00 | pKd [17]: < 5.00 | pKd [18]: < 5.00 | pKd [19]: < 5.00 | pKd [20]: < 5.00 | pKd [21]: < 5.00 | pKd [22]: < 5.00 | pKd [23]: < 5.00 | pKd [24]: < 5.00 | pKd [25]: < 5.00 | pKd [26]: < 5.00 | pKd [27]: < 5.00 | pKd [28]: < 5.00 | pKd [29]: < 5.00 | pKd [30]: < 5.00 | pKd [31]: < 5.00 | pKd [32]: < 5.00 | pKd [33]: < 5.00

Oc1ccc(-c2nc(-c3ccc(F)cc3)c(-c3ccncc3)[nH]2)cc1
pKd [1]: < 5.00 | pKd [2]: < 5.00 | pKd [3]: < 5.00 | pKd [4]: < 5.00 | pKd [5]: < 5.00 | pKd [6]: < 5.00 | pKd [34]: < 5.00 | pKd [8]: < 5.00 | pKd [9]: < 5.00 | pKd [10]: < 5.00 | pKd [35]: < 5.00 | pKd [11]: < 5.00 | pKd [36]: < 5.00 | pKd [12]: < 5.00 | pKd [13]: < 5.00 | pKd [14]: < 5.00 | pKd [15]: < 5.00 | pKd [16]: < 5.00 | pKd [18]: < 5.00 | pKd [19]: < 5.00 | pKd [20]: < 5.00 | pKd [21]: < 5.00 | pKd [23]: < 5.00 | pKd [24]: < 5.00 | pKd [25]: < 5.00 | pKd [26]: < 5.00 | pKd [27]: < 5.00 | pKd [37]: < 5.00 | pKd [38]: < 5.00 | pKd [28]: < 5.00 | pKd [39]: < 5.00 | pKd [30]: < 5.00 | pKd [40]: < 5.00 | pKd [41]: < 5.00 | pKd [42]: < 5.00 | pKd [32]: < 5.00 | pKd [33]: < 5.00

Reference: the kinase profiling compilation of Christmann-Franck et al. (2016)
